Measurements published in patent US6521751B1, “Recombinant nucleic acid sequences and methods for determining both genotoxicity and mutagenicity of a sample and the kinetics of the genotoxicity” (Vlaamse Instelling voor Technologisch Onderzoek (VITO), priority 1998, dated 2003).
Values joined by “and” are separate entries in the source; they are usually repeats but may differ in a detail not shown here. Equal entries are not always repeated. Where two headings read alike, the source gives them in different places.

What was measured:
[1] = test system: S. typhimurium TA104 containing pMOL890
[2] = test system: S. typhimurium TA104 containing pMOL1068
[3] = test system: S. typhimurium TA104 containing pMOL1066
[4] = test system: S. typhimurium TA98 containing pMOL1067
[5] = test system: S. typhimurium TA104 containing pMOL1067
[6] = test system: S. typhimurium TA104 containing pMOL1069
[7] = test system: E. coli (sfiA-lacZ); settings: cited from earlier work
[8] = test system: S. typhimurium; settings: cited from earlier work
[9] = test system: TA 98 and TA104 strains containing pMOL1067 or pMOL1068
[10] = test system: S. typhimurium TA98 containing pMOL1068
[11] = test system: S. typhimurium TA98 containing pMOL890
[12] = test system: novel biosensor systems in E. coli and in S. typhimurium strains; test: Subject SOS promoter-lux systems (general statements); settings: agents known to give false negative results in the SOS chromotest and the Ames test
[13] = test system: TA98 and TA104 strains containing pMOL890, pMOL1067 or pMOL1068; test: Test with the TA98 and TA104 strains containing pMOL890, pMOL1067 or pMOL1068
[14] = test system: TA104 (pMOL890); settings: M9 medium saturated with 0.1% of the PAH, degrading strain, samples every 3 days
[15] = test system: TA98 and TA104 containing pMOL1067; test: Induction kinetics with pMOL1067; format: cell-based, S. typhimurium
Procedure: The reaction of the different constructs when more than one genotoxic product is present in the test sample. was examined. This is an important aspect, since environmental samples often contain more than one genotoxic pollutant. Also in this regard many pharmaceutical products that have to be tested for genotoxicity can be a combination of different active genotoxic substances (e.g. anticancer or anti AIDS drugs). The experiments were performed with TA98 and TA104 containing either pMOL1067 or pMOL890. These two constructs were chosen since they show similar induction kinetics and the best signal/noise ratio's in S. typhimurium (see FIG. 7 and FIG. 8). As test products, several combinations of MMS and novobiocine were taken. These products were used since they were found by us to have different induction kinetics (e.g., with pMOL1067 MMS gives a maximum after 2 hours, while the maximal signal/noise ratio with novobiocine is observed after 4 hours).

[16] = test system: S. typhimurium TA104* containing pMOL890
[17] = test system: S. typhimurium TA98* containing pMOL890
[18] = test system: S. typhimurium TA100* containing pMOL890
[19] = SOS chromotest, literature values
[20] = TA 98 and TA104 strains containing pMOL1067 or pMOL1068

SMILES | MINIMAL DETECTED CONCENTRATION (MDC) ([1]; TA104 pMOL890) [nmol/assay] | MINIMAL DETECTED CONCENTRATION (MDC) ([2]; TA104 pMOL1068) [nmol/assay] | MINIMAL DETECTED CONCENTRATION (MDC) ([3]; TA104 pMOL1066) [nmol/assay] | MINIMAL DETECTED CONCENTRATION (MDC) ([4]; TA98 pMOL1067) [nmol/assay] | MINIMAL DETECTED CONCENTRATION (MDC) ([5]; TA104 pMOL1067) [nmol/assay] | MINIMAL DETECTED CONCENTRATION (MDC) ([6]; TA104 pMOL1069) [nmol/assay] | SOS (result) ([7]; SOS chromotest, Table 3) | MINIMAL DETECTED CONCENTRATION (MDC) [7, 19] | AMES (result) [8] | MINIMAL DETECTED CONCENTRATION (MDC) [8] | OUTCOME (genotoxicity, final outcome) [9, 20] | MINIMAL DETECTED CONCENTRATION (MDC) ([10]; TA98 pMOL1068) [nmol/assay] | MINIMAL DETECTED CONCENTRATION (MDC) ([11]; TA98 pMOL890) [nmol/assay] | result in the novel systems according to the invention [12] | result in the test (genotoxicity) [13] | genotoxicity during bacterial degradation of the PAH [14] | SOS (result) [7] | OUTCOME (genotoxicity, final outcome) [9] | other results
c1ccc2c(c1)ccc1c3ccccc3ccc21 [chrysene] | 2.2 | 1.095 | 1.095 | 5.5 | 0.55 | 0.55 | pos | 11 nmol/assay | pos | pos | pos | 5.5 | 2.2 | – | – | – | – | – | –
OO [H2O2, hydrogen peroxide] | 3.8 | 11.8 | 11.8 | 1.5 | 11.8 | 5.9 | pos | 23 nmol/assay | neg | neg | pos | 1.5 | 8.5 | positive | positive | – | – | – | result in the Ames test [8]: False-negative
c1ccc2c(c1)ccc1ccccc12 [Phenanthrene] | – | – | – | – | – | – | pos | – | – | – | pos | – | – | positive | positive | an increase followed by a decrease in genotoxicity | – | – | AMES (result) ([8]; Ames test, Table 3): neg; result in the Ames test ([8]; text b127): False-negative
c1ccc2c(c1)-c1cccc3cccc-2c13 [Fluoranthene] | – | – | – | – | – | – | – | – | pos | – | – | – | – | – | – | an increase of genotoxicity | pos | pos | –
c1ccc2c(c1)Cc1ccccc1-2 [fluorene] | – | – | – | – | – | – | – | – | – | – | – | – | – | – | – | no significant increase in genotoxicity | – | – | –
CO[C@@H]1[C@@H](OC(N)=O)[C@@H](O)[C@H](Oc2ccc3c(O)c(NC(=O)c4ccc(O)c(CC=C(C)C)c4)c(=O)oc3c2C)OC1(C)C [novobiocine] | 1.26 | 1.26 | 1.26 | 0.079 | 0.32 | 0.32 | neg | neg | – | – | pos | 0.63 | 0.57 | positive | positive | – | – | – | time of maximal signal/noise ratio [15]: 4 h; result in the SOS chromotest ([7]; text b126): negative; MINIMAL DETECTED CONCENTRATION (MDC) ([8]; AMES, literature values, pos/neg where MDC could not be calculated): pos; AMES (result) ([8]; Ames test, Table 3): pos
COc1ccc2nc3cc(Cl)ccc3c(NCCCNCCCl)c2c1 [ICR191] | – | – | – | – | – | – | – | – | pos | pos | – | – | – | – | – | – | pos | pos | MINIMAL DETECTED CONCENTRATION (MDC) ([1]; Salmonella typhimurium): 0.14 nmol/assay; MINIMAL DETECTED CONCENTRATION (MDC) ([2]; Salmonella typhimurium): 0.55 nmol/assay; MINIMAL DETECTED CONCENTRATION (MDC) ([3]; Salmonella typhimurium): 1.1 nmol/assay; MINIMAL DETECTED CONCENTRATION (MDC) ([4]; Salmonella typhimurium): 0.28 nmol/assay; MINIMAL DETECTED CONCENTRATION (MDC) ([5]; Salmonella typhimurium): 0.55 nmol/assay; MINIMAL DETECTED CONCENTRATION (MDC) ([6]; Salmonella typhimurium): 1.1 nmol/assay; MINIMAL DETECTED CONCENTRATION (MDC) [7]: 0.13 nmol/assay; MINIMAL DETECTED CONCENTRATION (MDC) ([10]; Salmonella typhimurium): 0.14 nmol/assay; MINIMAL DETECTED CONCENTRATION (MDC) ([11]; Salmonella typhimurium): 0.14 nmol/assay
[Cl][Cd][Cl] [CdCl2] | – | – | – | – | – | – | – | – | neg | neg | – | – | – | – | – | – | neg | neg | MINIMAL DETECTED CONCENTRATION (MDC) [1]: neg; MINIMAL DETECTED CONCENTRATION (MDC) [2]: neg; MINIMAL DETECTED CONCENTRATION (MDC) [3]: neg; MINIMAL DETECTED CONCENTRATION (MDC) [4]: neg; MINIMAL DETECTED CONCENTRATION (MDC) [5]: neg; MINIMAL DETECTED CONCENTRATION (MDC) [6]: neg; MINIMAL DETECTED CONCENTRATION (MDC) [7]: neg; MINIMAL DETECTED CONCENTRATION (MDC) [10]: neg; MINIMAL DETECTED CONCENTRATION (MDC) [11]: neg
c1ccc2c(c1)cc1ccc3cccc4ccc2c1c34 [BαP, benzo-α-pyrene] | 0.32 | 0.16 | 0.16 | 0.16 | 0.079 | 0.16 | pos | 0.7 nmol/assay | – | – | pos | 0.16 | 1.59 | – | – | – | – | – | Number of His^+ revertants ([16]; BαP 50 mmol + S9): 82 and 85; Number of His^+ revertants ([16]; BαP 50 mmol − S9): 29 and 27; Number of His^+ revertants ([16]; BαP 200 mmol + S9): 87; Number of His^+ revertants ([16]; BαP 200 mmol − S9): 26 and 32; Number of His^+ revertants ([16]; BαP 600 mmol + S9): 57 and 69; Number of His^+ revertants ([16]; BαP 600 mmol − S9): 21 and 19; Number of His^+ revertants ([17]; BαP 10 mmol + S9): 24; Number of His^+ revertants ([17]; BαP 50 mmol − S9): 0; Number of His^+ revertants ([17]; BαP 200 mmol + S9): 49 and 50; Number of His^+ revertants ([17]; BαP 200 mmol − S9): 0; Number of His^+ revertants ([17]; BαP 600 mmol + S9): 29 and 33; Number of His^+ revertants ([17]; BαP 600 mmol − S9): 0; Number of His^+ revertants ([18]; BαP 10 mmol + S9): 67 and 80; Number of His^+ revertants ([18]; BαP 50 mmol + S9): 64 and 54; Number of His^+ revertants ([18]; BαP 50 mmol − S9): 15 and 11; Number of His^+ revertants ([18]; BαP 200 mmol + S9): 59 and 58; Number of His^+ revertants ([18]; BαP 600 mmol + S9): 74 and 73; Number of His^+ revertants ([18]; BαP 600 mmol − S9): 6 and 3
